Experiments:
[1] = target: C-Raf kinase (SEQ. ID NO: 3) (Homo sapiens (Human), UniProt P04049, Y340D/Y341D); assay: Biochemical Assay for C-Raf (1); conditions: Table J, assay version (1); read-out: CRAF (1) IC50
Method in brief: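 Coupled pyruvate kinase/LDH assay tracking NADH oxidation at 340 nm, with 0.43 nM C-Raf, 30.1 nM MEK and 1 mM ATP in pH 7.5 Tris buffer (15 mM MgCl2, 1% DMSO final). Read continuously for 6 h at 30 °C, rate taken from the 4–5 h window. IC50 from four-parameter fit of percent inhibition.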

[2] = tested on: A375 cells; assay: A375 Cell Proliferation Assay (1); type: cell-based; conditions: Homo sapiens, A-375
Method in brief: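 Resazurin fluorescence (excitation 540 nm, emission 600 nm, after a further 5-6 h) gave IC50s from triplicate compound dilution series.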

[3] = target: B-Raf kinase (SEQ. ID NO: 2) (Homo sapiens (Human), UniProt P15056); assay: Biochemical Assay for B-Raf (1); conditions: Table J, assay version (1); read-out: BRAF (1) IC50
Method in brief: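 Continuous PK/LDH-coupled NADH oxidation assay, A340 read for 6 h at 30° C., with 0.13 nM B-Raf, 30.1 nM MEK substrate and 1 mM ATP in Tris pH 7.5, MgCl2, DTT, detergents, 1% DMSO. Rate taken from 4–5 h window; percent inhibition vs no-compound and known-inhibitor controls; four-parameter fit gives IC50.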

[4] = tested on: WM3928 cells; assay: WM3928 Cell Proliferation Assay (1); type: cell-based
Experimental: WM3928 Cell Proliferation Assay (1)
WM3928 cells (#WM3928-01-0001) are obtained from Rockland Immunochemicals Inc (Gilbertsville, PA). Briefly, cells were grown in MCDB 153 medium (Sigma, #M7403, St. Louis, MO) supplemented with 20% Leibovitz's L-15 (ThermoFisher #11415-064, Waltham, MA), 2% heat inactivated fetal bovine serum (ThermoFisher, #A3840001, Waltham, MA), 5 μg/mL Insulin (Bovine Pancreas) (Sigma, #I0516, St. Louis, MO), 1.68 mM Calcium Chloride (Sigma, #C-34006, St. Louis, MO) and 1% Penicillin/Streptomycin/L-Glutamine (ThermoFisher #10378016, Waltham, MA) at 37° C., 5% CO2, and 95% humidity. Cells are expanded until reaching 70-95% confluency at which point they are subcultured or harvested for assay use. A serial dilution of test compound is dispensed into a 96-well black clear bottom plate in triplicate. Three thousand cells are added per well in 200 μL complete growth medium in the 96-well plate. Plates are incubated for 67-72 hours at 37° C., 5% CO2, and 95% humidity. At the end of the incubation, 40 μL of a 440 μM solution of resazurin (Sigma, #199303, St. Louis, MO) in PBS is added to each well of the plate and plates are incubated for an additional 6-7 hours at 37° C., 5% CO2, and 95% humidity. Plates are read on a Synergy2 or equivalent reader (Biotek, Winooski VT) using an excitation of 540 nm and an emission of 600 nm. Data is analyzed using Prism software (GraphPad, San Diego, CA) to calculate IC50 values.

Sequence of C-Raf kinase (SEQ. ID NO: 3) (P04049 307-648 Y340D/Y341D): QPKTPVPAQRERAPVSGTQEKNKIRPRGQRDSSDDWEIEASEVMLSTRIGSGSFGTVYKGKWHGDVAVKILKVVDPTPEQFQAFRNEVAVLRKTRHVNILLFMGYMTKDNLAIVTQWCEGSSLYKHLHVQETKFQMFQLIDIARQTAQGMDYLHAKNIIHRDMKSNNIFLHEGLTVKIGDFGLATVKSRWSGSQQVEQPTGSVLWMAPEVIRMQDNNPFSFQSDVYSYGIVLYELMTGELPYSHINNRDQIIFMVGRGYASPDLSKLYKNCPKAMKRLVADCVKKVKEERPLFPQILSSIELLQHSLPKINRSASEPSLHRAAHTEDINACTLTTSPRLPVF
Sequence of B-Raf kinase (SEQ. ID NO: 2) (P15056 416-766): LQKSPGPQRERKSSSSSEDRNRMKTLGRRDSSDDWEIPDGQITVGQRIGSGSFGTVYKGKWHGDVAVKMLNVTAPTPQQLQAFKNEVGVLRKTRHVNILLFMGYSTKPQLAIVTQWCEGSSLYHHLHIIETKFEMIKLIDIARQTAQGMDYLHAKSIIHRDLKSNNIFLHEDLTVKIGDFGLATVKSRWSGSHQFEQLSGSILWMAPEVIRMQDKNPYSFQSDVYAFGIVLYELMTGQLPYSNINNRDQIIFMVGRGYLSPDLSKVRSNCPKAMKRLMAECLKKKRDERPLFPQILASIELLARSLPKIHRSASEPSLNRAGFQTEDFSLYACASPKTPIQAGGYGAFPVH

Row | Structure (SMILES) | IC50 [1] [µM] | IC50 [2] [µM] | IC50 [3] [µM] | IC50 [4] [µM]
1 | CC(=O)Nc1cc(-c2cc(-c3cc(NC(=O)c4ccnc(C(F)(F)F)c4)c(F)cc3C)cc(C)n2)ccn1 [Example 4] | ≤ 0.1 | 0.1 to 0.5 | ≤ 0.1 | 
2 | CC(=O)Nc1cc(-c2cc(-c3cc(NC(=O)c4ccnc(C(F)(F)F)c4)ccc3C)cc(C)n2)ccn1 [Example 5] | ≤ 0.1 | 0.1 to 0.5 | ≤ 0.1 | ≤ 0.1
3 | CC(=O)Nc1cc(-c2cc(-c3cc(NC(=O)c4ccnc(C(F)(F)F)c4)ccc3C)ccn2)ccn1 [Example 6] | ≤ 0.1 | ≤ 0.1 | ≤ 0.1 | 
4 | Cc1cc(F)c(NC(=O)c2ccnc(C(F)(F)F)c2)cc1-c1ccnc(-c2ccnc(NC(=O)CN(C)C)c2)c1 [Example 7] | ≤ 0.1 | 0.5 to 1 | ≤ 0.1 | 
5 | CCOc1cc(-c2cc(NC(=O)c3ccnc(C(F)(F)F)c3)ccc2C)cc(-c2ccnc(NC(C)=O)c2)n1 [Example 8] | ≤ 0.1 | ≤ 0.1 | ≤ 0.1 | 
6 | CC(=O)Nc1cc(-c2cc(-c3cc(NC(=O)c4ccnc(C(F)(F)F)c4)c(F)cc3C)cc(OC(C)C)n2)ccn1 [Example 10] | 0.1 to 0.5 | ≤ 0.1 | 0.1 to 0.5 | ≤ 0.1
7 | CC(=O)Nc1cc(-c2cc(-c3cc(NC(=O)c4ccnc(C(F)(F)F)c4)ccc3C)cc(=O)n2C)ccn1 [Example 11] | ≤ 0.1 | 1 to 10 | 0.1 to 0.5 | 
8 | Cc1ncc(NC(=O)c2ccnc(C(F)(F)F)c2)cc1-c1cccc(-c2ccnc(N)c2)c1 [Example 94] | ≤ 0.1 | 1 to 10 | 0.1 to 0.5 | 
9 | Cc1ncc(NC(=O)c2cccc(C(F)(F)F)c2)cc1-c1cccc(-c2ccnc(NC(=O)CC#N)c2)c1 [Example 97] | ≤ 0.1 | 0.1 to 0.5 | ≤ 0.1 | ≤ 0.1
10 | Cc1ccc(NC(=O)c2ccnc(C(F)(F)F)c2)cc1-c1cncc(-c2ccnc(NC(=O)CC#N)c2)n1 [Example 98] | ≤ 0.1 | 0.5 to 1 | ≤ 0.1 | 
11 | COCC(=O)Nc1cc(-c2cncc(-c3cc(NC(=O)c4ccnc(C(F)(F)F)c4)ccc3C)n2)ccn1 [Example 99] | ≤ 0.1 | 0.5 to 1 | ≤ 0.1 | 
12 | Cc1ccc(NC(=O)c2ccnc(C(F)(F)F)c2)cc1-c1cncc(-c2ccnc(NC(=O)CN(C)C)c2)n1 [Example 100] | ≤ 0.1 | 0.1 to 0.5 | ≤ 0.1 | 
13 | Cc1ccc(NC(=O)c2ccnc(C(C)(C)C#N)c2)cc1-c1ccnc(-c2ccnc3c2CC(=O)N3)n1 [Example 101] | ≤ 0.1 | 0.5 to 1 | ≤ 0.1 | 0.1 to 0.5
14 | CC(=O)Nc1cc(-c2cc(-c3cc(NC(=O)c4ccnc(C(F)(F)F)c4)ccc3C)cn(CCO)c2=O)ccn1 [Example 102] | 0.1 to 0.5 | 1 to 10 | 0.1 to 0.5 | 
15 | CC(=O)Nc1cc(-c2ccnc(-c3cc(NC(=O)c4ccnc(C(C)(C)C#N)c4)ccc3C)n2)ccn1 [Example 103] | ≤ 0.1 | ≤ 0.1 | ≤ 0.1 | ≤ 0.1
16 | Cc1cc(F)c(NC(=O)c2ccnc(C(C)(C)C#N)c2)cc1-c1ccnc(-c2ccnc(NC=O)c2)c1 [Example 104] | ≤ 0.1 | ≤ 0.1 | ≤ 0.1 | ≤ 0.1
17 | Cc1ncc(NC(=O)c2ccnc(C(C)(C)C#N)c2)cc1-c1cccc(-c2ccnc3c2CC(=O)N3)c1 [Example 105] | ≤ 0.1 | 1 to 10 | 0.1 to 0.5 | 0.1 to 0.5
18 | CNC(=O)c1cc(-c2cccc(-c3cc(NC(=O)c4ccnc(C(F)(F)F)c4)ccc3C)c2)ncn1 [Example 106] | ≤ 0.1 | 0.5 to 1 | 0.1 to 0.5 | 
19 | CC(=O)Nc1cc(-c2nccc(-c3cc(NC(=O)c4ccnc(C(F)(F)F)c4)c(F)cc3C)n2)ccn1 [Example 107] | ≤ 0.1 | 0.1 to 0.5 | ≤ 0.1 | 
20 | Cc1ccc(NC(=O)c2cccc(C(C)(C)C#N)c2)cc1-c1cc(OCCO)nc(-c2ccnc3c2CC(=O)N3)c1 [Example 108] | ≤ 0.1 | ≤ 0.1 | ≤ 0.1 | ≤ 0.1

Row | Structure (SMILES) | IC50 [1] [µM] | IC50 [2] [µM] | IC50 [3] [µM] | IC50 [4] [µM]
21 | Cc1ccc(NC(=O)c2ccnc(C(C)(C)C#N)c2)cc1-c1cccc(-c2ncnc3c2CC(=O)N3)c1 [Example 109] | ≤ 0.1 | 0.1 to 0.5 | ≤ 0.1 | ≤ 0.1
22 | Cc1ncc(NC(=O)c2ccnc(C(C)(C)C#N)c2)cc1-c1cccc(-c2ncnc3c2CC(=O)N3)c1 [Example 110] | 0.1 to 0.5 | 1 to 10 | 0.1 to 0.5 | 0.5 to 1
23 | Cc1ncc(NC(=O)c2ccnc(C(C)(C)C#N)c2)cc1-c1cccc(-c2ccnc3[nH]cnc23)c1 [Example 111] | 0.1 to 0.5 | 1 to 10 | 0.5 to 1 | 1 to 10
24 | Cc1ccc(NC(=O)c2ccnc(C(C)(C)C#N)c2)cc1-c1cncc(-c2ccnc(NC(=O)C3CC3)c2)n1 [Example 112] | ≤ 0.1 | ≤ 0.1 | ≤ 0.1 | ≤ 0.1
25 | CC(=O)Nc1cc(-c2cc(-c3cc(NC(=O)c4ccnc(C(C)(C)C#N)c4)ccc3C)cn(C)c2=O)ccn1 [Example 113] | ≤ 0.1 | 0.1 to 0.5 | 0.1 to 0.5 | 0.1 to 0.5
26 | COc1cc(C(=O)Nc2ccc(C)c(-c3cncc(-c4ccnc(NC(C)=O)c4)n3)c2)ccc1F [Example 120] | ≤ 0.1 | 1 to 10 | ≤ 0.1 | 
27 | CC(=O)Nc1cc(-c2cncc(-c3cc(NC(=O)c4ccc(Cl)c(C(F)(F)F)c4)ccc3C)n2)ccn1 [Example 121] | ≤ 0.1 | 0.1 to 0.5 | ≤ 0.1 | 
28 | CNC(=O)c1cc(-c2cc(-c3cc(NC(=O)c4cccc(C(C)(C)C#N)c4)ccc3C)ccn2)ccn1 [Example 127] | ≤ 0.1 | ≤ 0.1 | ≤ 0.1 | 
29 | COCC(=O)Nc1cc(-c2cccc(-c3cc(NC(=O)c4ccnc(C(F)(F)F)c4)cnc3C)n2)ccn1 [Example 130] | ≤ 0.1 | 1 to 10 | ≤ 0.1 | 
30 | Cc1ccc(NC(=O)c2ccnc(C(C)(C)C#N)c2)cc1-c1cccc(-c2ccnc3[nH]ccc23)c1 [Example 133] | 0.1 to 0.5 | 1 to 10 | 0.1 to 0.5 | 
31 | CNC(=O)c1cc(-c2cncc(-c3cc(NC(=O)c4cc(C(F)(F)F)ccn4)ccc3C)n2)ccn1 [Example 135] | ≤ 0.1 | 0.5 to 1 | ≤ 0.1 | 
32 | CNC(=O)c1cc(-c2cncc(-c3cc(NC(=O)c4cccc(C(C)(C)C#N)c4)ccc3C)n2)ccn1 [Example 136] | ≤ 0.1 | ≤ 0.1 | ≤ 0.1 | 
33 | CNC(=O)c1cc(-c2cncc(-c3cc(NC(=O)c4ccnc(C5(C#N)CC5)c4)ccc3C)n2)ccn1 [Example 138] | ≤ 0.1 | 0.1 to 0.5 | ≤ 0.1 | 
34 | CNC(=O)c1cc(-c2cncc(-c3cc(NC(=O)c4ccnc(C5CC5)c4)ccc3C)n2)ccn1 [Example 139] | ≤ 0.1 | 1 to 10 | ≤ 0.1 | 
35 | Cc1ccc(NC(=O)c2ccnc(C(C)(C)C#N)c2)cc1-c1cncc(-c2ccnc(N)c2)n1 [Example 141] | ≤ 0.1 | 1 to 10 | 0.1 to 0.5 | 
36 | COCC(=O)Nc1cc(-c2cncc(-c3cc(NC(=O)c4ccnc(C(C)(C)C#N)c4)ccc3C)n2)ccn1 [Example 142] | ≤ 0.1 | ≤ 0.1 | ≤ 0.1 | 
37 | COCCNc1cc(-c2cncc(-c3cc(NC(=O)c4ccnc(C(C)(C)C#N)c4)ccc3C)n2)ccn1 [Example 143] | ≤ 0.1 | 1 to 10 | 0.1 to 0.5 | 
38 | CC(=O)Nc1cc(-c2nccc(-c3cc(NC(=O)c4cc(C(F)(F)F)ccn4)ccc3C)n2)ccn1 [Example 153] | ≤ 0.1 | ≤ 0.1 | ≤ 0.1 | 
39 | CNC(=O)c1cc(-c2nccc(-c3cc(NC(=O)c4ccnc(C(C)(C)C#N)c4)c(F)cc3C)n2)ccn1 [Example 166] | 0.1 to 0.5 | 0.1 to 0.5 | 0.1 to 0.5 | 
40 | CNc1cc(-c2cncc(-c3cc(NC(=O)c4ccnc(C(C)(C)C#N)c4)ccc3C)n2)ccn1 [Example 173] | ≤ 0.1 | 0.5 to 1 | 0.1 to 0.5 | 
